Several values for one entry are separate records, joined by “and”; a condition that tells them apart may be missing. Equal values may be shown once. Read-outs that look alike come from different tables or passages of the source.
Experiments:
[1] = log P by HPLC on reversed-phase C18 columns (OECD Guideline 117); format: physicochemical; details: for logP[a]: method [a]; for logP[b]: method [b]; for chromatographic logP: reversed-phase C18 HPLC column
In short: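 Reversed-phase C18 HPLC per OECD 117, LC-MS with a linear 10% to 95% acetonitrile gradient. Acidic method at pH 2.7 with 0.1% formic acid; neutral method at pH 7.8 with 0.001 M ammonium hydrogencarbonate.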

[2] = system: green peach aphid (Myzus persicae); experiment: Myzus persicae spray test (bell pepper plants); format: in vivo; details: after 6 days
Experimental: Myzus persicae—Spray Test
Solvent: 14 parts by weight of dimethylformamide
(§1) Emulsifier: alkylaryl polyglycol ether
To produce a suitable active compound preparation, 1 part by weight of active compound is dissolved using the stated parts by weight of solvent and made up with water containing an emulsifier concentration of 1000 ppm until the desired concentration is attained. To produce further test concentrations, the preparation is diluted with emulsifier-containing water. If the addition of ammonium salts and/or penetrants is required, these are each added in a concentration of 1000 ppm to the formulation solution.
Bell pepper plants (Capsicum annuum) severely infested with the green peach aphid (Myzus persicae) are treated by spraying with the active compound preparation in the desired concentration.
After 6 days, the kill in % is determined. 100% means that all of the aphids have been killed; 0% means that none of the aphids have been killed.

[3] = system: green peach aphid (Myzus persicae); experiment: Contrasting example: Myzus persicae spray test (MYZUPE); format: in vivo; details: MYZUPE, 100 g ai/ha
Experimental: Myzus persicae—Spray Test (MYZUPE)
(§2) Solvents: 78.0 parts by weight of acetone • • 1.5 parts by weight of dimethylformamide
as §1
(§3) To produce a suitable active compound preparation, 1 part by weight of active compound is dissolved using the stated parts by weight of solvent and made up with water containing an emulsifier concentration of 1000 ppm until the desired concentration is attained. To produce further test concentrations, the preparation is diluted with emulsifier-containing water.
Discs of Chinese cabbage leaves (Brassica pekinensis), infested by all stages of the green peach aphid (Myzus persicae) are sprayed with an active compound preparation of the desired concentration.
After the desired period of time, the efficacy in % is determined. 100% means that all aphids were killed; 0% means that no aphids were killed.

[4] = system: green peach aphid (Myzus persicae); experiment: Myzus persicae spray test (Chinese cabbage leaf discs); format: in vivo; details: after 5 or 6 days, Chinese cabbage leaf discs
In short: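 Leaf discs bearing all aphid stages are sprayed with compound dissolved in acetone/DMF and diluted with water containing 1000 ppm emulsifier. Efficacy in % is scored after 5 or 6 days: 100% means all aphids killed, 0% none killed.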

[5] = system: greenhouse red spider mite (Tetranychus urticae); experiment: Contrasting example: Tetranychus urticae spray test, OP resistant (TETRUR); format: in vivo; details: 500 g ai/ha, 6 dat
Experimental: Tetranychus urticae—Spray Test; OP Resistant (TETRUR)
as §2, §1, §3
Discs of bean leaves (Phaseolus vulgaris), infested by all stages of the greenhouse red spider mite (Tetranychus urticae) are sprayed with an active compound preparation of the desired concentration.
After the desired period of time, the efficacy in % is determined. 100% means that all spider mites were killed; 0% means that no spider mites were killed.

logP[a] [1]	logP[b] [1]	SMILES	% efficacy ([3]; 6 dat)	efficacy (aphids killed) ([4]; application rate 500 g/ha)	% efficacy ([3]; 5 dat)	other results
1.04	1.35	COCCCSc1ncc(C(=O)N(C)c2cccnc2)n1C [I-A-20]				efficacy (kill of aphids) ([2]; application rate 20 ppm): 99%
0.80	1.30	CCN(C(=O)c1cnc(SC)n1C)c1cccnc1 [I-A-44]				efficacy (kill of aphids) ([2]; application rate 20 ppm): 100%
2.02	2.14	CN(C(=O)c1cnc(Sc2ccc(Cl)cc2)n1C)c1cccnc1 [I-A-57]				efficacy (kill of aphids) ([2]; application rate 20 ppm): 99%
1.97	2.11	CN(C(=O)c1cnc(Sc2cccc(Cl)c2)n1C)c1cccnc1 [I-A-66]				efficacy (kill of aphids) ([2]; application rate 100 ppm): 99%
1.61	1.79	COc1cc(OC)nc(Sc2ncc(C(=O)N(C)c3cccnc3)n2C)n1 [I-A-102]	90%	100%		
0.97		Cc1cnc(Sc2ncc(C(=O)N(C)c3cccnc3)n2C)nc1 [I-A-104]	90%	100%		
1.20		COc1ccnc(Sc2ncc(C(=O)N(C)c3cccnc3)n2C)n1 [I-A-106]	90%	100%		
1.28	1.43	Cc1cccc(Sc2ncc(C(=O)N(C)c3cccnc3)n2C)n1 [I-A-108]	70%	100%		
0.56	0.85	CN(C(=O)c1cnc(SCc2ncccn2)n1C)c1cccnc1 [I-A-112]	90%	100%		
0.66	0.93	CN(C(=O)c1cnc(SCc2cnccn2)n1C)c1cccnc1 [I-A-113]	90%	90%		
0.16	1.11	CN(C(=O)c1cnc(SCc2ccncc2)n1C)c1cccnc1 [I-A-116]	90%	100%		
0.63	1.16	CN(C(=O)c1cnc(SCc2ccccn2)n1C)c1cccnc1 [I-A-117]	90%	90%		
1.37	1.58	CN(C(=O)c1cnc(SCc2ccc(Cl)nc2)n1C)c1cccnc1 [I-A-122]	90%	100%		
1.41	1.68	COc1cc(OC)nc(CSc2ncc(C(=O)N(C)c3cccnc3)n2C)n1 [I-A-128]	90%	90%		
0.62	0.89	Cc1nnc(Sc2ncc(C(=O)N(C)c3cccnc3)n2C)o1 [I-A-135]		100%	90%	
1.31	1.47	Cc1nc(Sc2ncc(C(=O)N(C)c3cccnc3)n2C)oc1C [I-A-142]		90%	90%	
	0.86	CN(C(=O)c1cnc(Sc2nccn2C)n1C)c1cccnc1 [I-A-144]		100%	90%	

Continued, molecule first:

SMILES	logP[a] [1]	logP[b] [1]	% efficacy ([3]; 6 dat)	efficacy (aphids killed) ([4]; application rate 500 g/ha)	% efficacy ([3]; 5 dat)	other results
Cc1cc(C)nc(Sc2ncc(C(=O)Nc3cccnc3)n2C)n1 [I-A-4]	1.55	1.97	70%			efficacy (kill of aphids) ([2]; application rate 20 ppm): 99%
CON=C(C)CSc1ncc(C(=O)N(C)c2cccnc2)n1C [I-A-39]	1.13	1.37 and 1.45		90%		% efficacy [5]: 70%
CN(C(=O)c1cnc(Sc2ncc(F)cn2)n1C)c1cccnc1 [I-A-107]	1.04	1.20	90%	90%		% efficacy [5]: 70%
CN(C(=O)c1cnc(Sc2ncccc2C(F)(F)F)n1C)c1cccnc1 [I-A-110]	1.77	1.93	100%	100%		% efficacy [5]: 70%
CN(C(=O)c1cnc(SCc2c(Cl)cccc2Cl)n1C)c1cccnc1 [I-A-125]	2.09	2.28	70%	90%		% efficacy [5]: 70%
CN(C(=O)c1cnc(SCc2c(Cl)cccc2C(F)(F)F)n1C)c1cccnc1 [I-A-126]	2.47	2.54	70%	100%		
CN(C(=O)c1cnc([S+]([O-])Cc2ccccc2)n1C)c1cccnc1 (stereo not drawn) [I-A-130]	1.18			90%	90%	
CN(C(=O)c1cnc(Sc2nc3ccccc3n2C)n1C)c1cccnc1 [I-A-134]	1.27	1.56		100%	100%	
CCn1c(Sc2ncc(C(=O)N(C)c3cccnc3)n2C)nnc1C(F)(F)F [I-A-137]	1.41	1.46		90%	90%	
CN(C(=O)c1cnc(Sc2nnc(C(F)(F)F)n2C)n1C)c1cccnc1 [I-A-138]	1.12	1.26		100%	90%	
CN(C(=O)c1cnc(Sc2nnc(C(F)F)n2C)n1C)c1cccnc1 [I-A-139]	0.87	1.00		100%	90%	
CN(C(=O)c1cnc(Sc2nnc(-c3ccccc3)s2)n1C)c1cccnc1 [I-A-140]	1.92	1.96		100%	70%	
CN(C(=O)c1cnc(Sc2ncc(-c3ccccc3)n2C)n1C)c1cccnc1 [I-A-141]	1.39	1.84		100%	70%	
CCn1c(C(=O)N(C)c2cccnc2)cnc1Sc1ncccn1 [I-A-146]	1.11	1.27			90%	efficacy (aphids killed) ([4]; application rate 100 g/ha): 90%
CN(C(=O)c1cn(C)c(Sc2ncccn2)n1)c1cccnc1 [I-B-1]						chromatographic logP ([1]; pH 2.7, acidic range, pH 2.7, 0.1% aqueous formic acid / acetonitrile, read-out: log P[a]): 0.42; chromatographic logP ([1]; pH 7.8, neutral range, pH 7.8, 0.001 molar aqueous ammonium hydrogencarbonate / acetonitrile, read-out: log P[n]): 0.83; pest or weed control at 500 g/ha ([4]; Myzus persicae, foliar, application rate 500 g/ha, read-out: efficacy (aphids killed)): 100%; pest or weed control at 100 g/ha ([3]; Myzus persicae, 144 h, 6 dat, read-out: % efficacy): 90%

From patent US10368545B2, “Substituted 2-thioimidazolylcarboxamides as pesticides” (BAYER CROPSCIENCE AKTIENGESELLSCHAFT, priority 2015, dated 2019)
